Source: US20230226072A1 (priority 2020, published 2023)

Columns and labels:
Influenza A N1H1 = assay: In vivo antiviral efficacy in Balb/c mice, lung virus titer by TCID50 assay
Description: Mice received a daily MB-dose of 5 mg/kg based on a daily drinking volume of ˜5-6 ml and a body weight of 25-35 g. The control group received drinking water with saccharin but without methylene blue.
Mice were euthanized and lungs were removed on day 3 post challenge with influenza H1N1 virus. These tissue samples were stored at <−60° C. until they were transferred into homogenization tubes containing 1 ml cell medium supplemented with antibiotics. The lungs were homogenized two times at 5000 rpm for twenty seconds with 10 seconds pause between the intervals with a tissue homogenizer. The infectious H1N1 virus titer in homogenized lung samples was determined by a TCID50 assay performed by titration on Madin-Darby Canine Kidney (MDCK) cells as described above.

[1] = in vivo; cited from earlier work

| Compound | viricidal efficacy, lung virus titer (TCID50 assay) (Influenza A N1H1; prophylactic application, 5 mg/kg daily in drinking water from day 0, challenge day 10, lungs 3 days later) | viricidal efficacy, lung virus titer (TCID50 assay) (Influenza A N1H1; therapeutic application, 5 mg/kg daily in drinking water from day 11, challenge day 10) | initial half-life [1] | terminal half-life [1] |
| --- | --- | --- | --- | --- |
| CN(C)c1ccc2nc3ccc(=[N+](C)C)cc-3sc2c1.[Cl-] [methylene blue, [7-(dimethylamino)phenothiazin-3-ylidene]-dimethylazanium; chloride] | significant viricidal efficacy | significant viricidal efficacy |  |  |
| Cc1cc2nc3c(=O)[nH]c(=O)nc-3n(C[C@H](O)[C@H](O)[C@H](O)CO)c2cc1C [riboflavin, 7,8-dimethyl-10-[(2S,3S,4R)-2,3,4,5-tetrahydroxypentyl]benzo[g]pteridine-2,4-dione] |  |  | 1.4 h | 14 h |
